From ChEMBL document CHEMBL1153401, “Role of the hydrogen bonding heteroatom-Lys53 interaction between the p38alpha mitogen-activated protein (MAP) kinase and pyridinyl-substituted 5-membered heterocyclic ring inhibitors” (J Med Chem, 2009)

These compounds were tested against Mitogen-activated protein kinase 14 (Homo sapiens, UniProt Q16539) (assay: Inhibition of p38alpha MAP kinase).
Sequence of Mitogen-activated protein kinase 14 (Q16539 whole entry): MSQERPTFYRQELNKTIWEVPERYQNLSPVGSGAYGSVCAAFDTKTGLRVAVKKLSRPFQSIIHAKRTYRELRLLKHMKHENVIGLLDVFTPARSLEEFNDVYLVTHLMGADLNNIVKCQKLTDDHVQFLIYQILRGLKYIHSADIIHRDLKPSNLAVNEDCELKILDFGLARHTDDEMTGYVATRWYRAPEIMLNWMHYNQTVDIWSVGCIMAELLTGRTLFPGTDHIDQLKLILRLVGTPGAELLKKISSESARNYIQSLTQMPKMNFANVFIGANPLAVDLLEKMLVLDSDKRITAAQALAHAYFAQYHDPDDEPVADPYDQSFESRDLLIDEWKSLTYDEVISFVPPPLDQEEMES

| SMILES | IC50 [µM] |
| --- | --- |
| Fc1ccc(-c2occc2-c2ccncc2)cc1 | 0.74 |
| Fc1ccc(C2=C(c3ccncc3)CCC2)cc1 | 4.05 |
| Fc1ccc(-c2nc[nH]c2-c2ccncc2)cc1 | 0.079 |
| Fc1ccc(-c2[nH]ccc2-c2ccncc2)cc1 | 0.42 |
